Where two headings read alike, the source gives them in different places.
Key:
[1] = test system: vesicular monoamine transporter 2 (VMAT2); parameters: method as in PMID 10528135; settings: compared with MDMA; cited from earlier work
[2] = Pharmacokinetics in plasma and brain after IP dosing; format: in vivo; settings: rat; for Kp: brain and plasma; for Kp / MRT last / half-life: ip
Method: Pharmacokinetics studies were carried out at WuXi Apptec, Inc. (Cranbury, NJ, USA) using standard protocols. All animal use and procedures were approved by the WuXi Apptec, Inc., IACUC. Briefly, terminal blood and brain samples were collected from 6 to 8 week old male Sprague Dawley rats (Hilltop Lab Animals, Inc., Scottsdale, PA, USA) at 0.25, 0.5, 1, 2, 4, and 8 h (N = 3 per group per time point) for the determination of plasma concentrations of methylone following intraperitoneal (IP) dosing of 5, 10, or 15 mg/kg methylone. Since these were terminal collections, three independent rats per group were used for each time point in a single PK curve from which PK parameters (Cmax, AUC, etc.) were generated. Samples were collected into K2EDTA tubes on ice and centrifuged at 3000 × g at 4°C for 5 min within 30 min of collection. Plasma samples were stored at −80°C until analysis by liquid chromatography tandem mass spectrometry (LC-MS/MS). The bioanalytical assay provided a lower limit of quantification (LLOQ) of 1 ng/mL and an upper limit of quantification (ULOQ) of 3000 ng/mL for methylone. The plasma concentration-time data were analyzed using Phoenix WinNonlin (version 8.3) to characterize the PK properties of the analyte. The non-compartmental analysis model and the linear/log trapezoidal method were applied to the calculation of the PK parameters.

serotonin uptake = settings: cited from earlier work
male Sprague Dawley rats = test: Open field test (OFT): locomotor activity and time in center; format: in vivo, rat
Method: Male Sprague Dawley rats (Charles River Laboratories) weighing 180–200 g on arrival, were used for all behavioral studies, which took place at Melior Discovery (Exton, PA, USA). Rats acclimated to their home cages for at least 1 week before testing, were maintained in a controlled environment on a 12 h light/dark cycle, with no more than 2 rats per cage. Animals received ad libitum access to standard rodent chow and water and were assigned randomly to treatment groups. All animal use and procedures were in accordance with established protocols approved by the Melior IACUC committee, Melior Standard Operation Procedures (SOP), and Transcend Therapeutics. Distinct cohorts of animals were used for each experiment/Figure presented in this manuscript.
Methylone HCl (0.5–30 mg/kg; Cayman Chemical) or Fluoxetine HCl (10 mg/kg; Sigma-Aldrich) were formulated in sterile 0.9% saline vehicle before IP administration. Control animals received saline vehicle. Methylone or saline was administered 30 min prior to FST or OFT testing sessions. Fluoxetine or saline were administered 23.5, 5, and 1 h prior to testing, consistent with previous studies ([19]).
All studies were performed by an experimenter blind to treatment group and according to standard protocols at Melior Discovery (Exton, PA, USA). The OFT was used to assess both locomotor activity and anxiety-like behavior. The OFT was run in a standard rat OFA chamber (17 ^^′′ × 17 ^^′′ × 12 ^^′′ , Med Associates). After habituation to the testing room and drug injection, rats were assessed for 30 min in the OFT using an automated activity monitoring system (MedAssociates). Locomotor activity was measured by recording the total ambulatory distance traveled (cm), reported in 5-min bins for the duration of the 30 min testing period. The center of the open field was defined as a 12 ^^′′ square, a predefined center setting on the MedAssociates analysis software. Time spent in the center of the open field, an anxiolytic measure, was also recorded for the 30 min testing period.

rodents = test system: rodents; parameters: method as in PMID 23839026, PMID 28882561, PMID 22509960, PMID 22922498; settings: cited from earlier work
PTSD patients = test system: PTSD patients; parameters: method as in earlier work; settings: retrospective clinical case series; cited from earlier work
[3] = binge-dosing regimen; cited from earlier work
[4] = test system: serotonin receptor 1A (5-HTR1A); parameters: method as in PMID 23583454; settings: not all reports support activity ([43]); cited from earlier work
brain serotonin = settings: repeated doses; cited from earlier work
[5] = test system: other 5-HT, NE, or DA receptors; parameters: method as in PMID 31063768; settings: cited from earlier work
healthy volunteers = settings: cited from earlier work
mice = test system: mice; parameters: method as in PMID 23603357; settings: 3–4 doses of 25 mg/kg over a 2-day period, 3 days after dosing; cited from earlier work
[6] = male, Sprague Dawley, plasma, 5 mg/kg IP
[7] = male, Sprague Dawley, plasma, 10 mg/kg IP
[8] = male, Sprague Dawley, plasma, 15 mg/kg IP

For `CNC(C)C(=O)c1ccc2c(c1)OCO2` (stereo not shown) [methylone, 3,4-methylenedioxy-N-methylcathinone], the “lower potency at VMAT2 than MDMA” value [1] is listed as over 10 fold, the plasma concentration ([2]; after 5 mg/kg dose) is listed as “approximately 8 μM” and the plasma concentration ([2]; after 10 mg/kg dose) is listed as about 18 µM. The “AUC0–last” value ([2]; brain, 5 mg/kg IP) was 1661 ng·h/g, the Tlast ([2]; brain, 5 mg/kg IP) was 4.00 h and the “AUC0–last” value ([2]; brain, 10 mg/kg IP) was 5576 ng·h/g. For the same molecule, the Tlast ([2]; brain, 10 mg/kg IP) was 4.00 h, the “AUC0–last” value ([2]; brain, 15 mg/kg IP) was 13201 ng·h/g and the Tlast ([2]; brain, 15 mg/kg IP) was 8.00 h. It also gave a Kp ([2]; male, Sprague Dawley, 5 mg/kg, 5 mg/kg IP, read-out: AUC ratio (brain: plasma)) of 1.83, a Kp ([2]; male, Sprague Dawley, 10 mg/kg, 10 mg/kg IP, read-out: AUC ratio (brain: plasma)) of 1.72 and a Kp ([2]; male, Sprague Dawley, 15 mg/kg, 15 mg/kg IP, read-out: AUC ratio (brain: plasma)) of 1.8. It also gave a Kp ([2]; male, Sprague Dawley, 15 mg/kg, across 5, 10, 15 mg/kg IP, read-out: brain to plasma AUC ratio) of about 1.8, an MRT last ([2]; male, Sprague Dawley, brain, 5 mg/kg, brain, 5 mg/kg IP, read-out: MRT0–last) of 41.8 min and a half-life ([2]; male, Sprague Dawley, brain, 5 mg/kg, brain, 5 mg/kg IP, read-out: T1/2 (converted)) of 41.5 min. It also gave an MRT last ([2]; male, Sprague Dawley, brain, 10 mg/kg, brain, 10 mg/kg IP, read-out: MRT0–last) of 61.8 min, a half-life ([2]; male, Sprague Dawley, brain, 10 mg/kg, brain, 10 mg/kg IP, read-out: T1/2 (converted)) of 36.4 min and an MRT last ([2]; male, Sprague Dawley, brain, 15 mg/kg, brain, 15 mg/kg IP, read-out: MRT0–last) of 60.6 min. It also gave a half-life ([2]; male, Sprague Dawley, brain, 15 mg/kg, brain, 15 mg/kg IP, read-out: T1/2 (converted)) of 53 min, an MRT last ([2]; male, Sprague Dawley, plasma, 5 mg/kg, plasma, 5 mg/kg IP, read-out: MRT0–last) of 40 min and a half-life ([2]; male, Sprague Dawley, plasma, 5 mg/kg, plasma, 5 mg/kg IP, read-out: T1/2 (converted)) of 35.9 min. The MRT last ([2]; male, Sprague Dawley, plasma, 10 mg/kg, plasma, 10 mg/kg IP, read-out: MRT0–last) was 64.2 min, the half-life ([2]; male, Sprague Dawley, plasma, 10 mg/kg, plasma, 10 mg/kg IP, read-out: T1/2 (converted)) was 40.4 min and the MRT last ([2]; male, Sprague Dawley, plasma, 15 mg/kg, across 5, 10, 15 mg/kg IP, read-out: mean residence time (MRT0–last)) was 42 to 67.8 min. For the same molecule, the half-life ([2]; male, Sprague Dawley, plasma, 15 mg/kg, across 5, 10, 15 mg/kg IP, read-out: terminal elimination half-life (T1/2)) was 36 to 48 min, the MRT last ([2]; male, Sprague Dawley, plasma, 15 mg/kg, plasma, 15 mg/kg IP, read-out: MRT0–last) was 67.8 min and the half-life ([2]; male, Sprague Dawley, plasma, 15 mg/kg, plasma, 15 mg/kg IP, read-out: T1/2 (converted)) was 48.7 min. It also gave a Cmax ([2]; male, Sprague Dawley, brain, 5 mg/kg IP) of 3510 ng/g, a Cmax ([2]; male, Sprague Dawley, brain, 10 mg/kg IP) of 8020 ng/g and a Cmax ([2]; male, Sprague Dawley, brain, 15 mg/kg IP) of 20000 ng/g. For the same molecule, the AUC(0-t) [2, 6] was 908 ng·h/mL, the Cmax [2, 6] was 1980 ng/mL and the AUC(0-t) [2, 7] was 3240 ng·h/mL. The Cmax [2, 7] was 4510 ng/mL, the AUC(0-t) [2, 8] was 7320 ng·h/mL and the Cmax [2, 8] was 8470 ng/mL. It also gave a Tmax ([2]; male, Sprague Dawley, plasma, 5, 10 or 15 mg/kg IP) of 15 min, a Tlast ([2]; plasma, 5 mg/kg IP) of 4.00 h and a Tlast ([2]; plasma, 10 mg/kg IP) of 8.00 h. The Tlast ([2]; plasma, 15 mg/kg IP) was 8.00 h, the “lower potency for inhibition of serotonin uptake vs MDMA” value (serotonin uptake; compared with MDMA) was 3–4 × and the “less potent inhibitor of serotonin uptake than MDMA” value (serotonin uptake; in vitro, compared with MDMA) was 3–4 fold. For the same molecule, the IC50 (serotonin uptake; in vitro, read-out: IC50 for inhibition of serotonin uptake) was 5.75 µM, the “distance traveled, first 5 min” value (male Sprague Dawley rats; methylone 0.5–10 mg/kg IP, 30 min before, Figure 4C) was “did not affect locomotor activity” and the “distance traveled, first 5 min” value (male Sprague Dawley rats; methylone 0.5–30 mg/kg, retest 24 h post-dose, all groups, Figure 4D) was “locomotor activity returned to baseline”. For the same molecule, the “time spent in the center” value (male Sprague Dawley rats; methylone 5–30 mg/kg, 30 min after dosing, 30 min test, Figure 5A) was “significantly increased time spent in the center”, the “distance traveled, first 5 min” value (male Sprague Dawley rats; methylone 15–30 mg/kg IP, 30 min before, Figure 4C) was “significantly increased distance traveled” and the “distance traveled over 30-min session, 5-min bins” value (male Sprague Dawley rats; methylone 15–30 mg/kg IP, Figure 4F) was “increased distance traveled for the duration of the testing session”. For the same molecule, the locomotor activity (rodents) was “increase locomotor activity”, the “effect on symptoms of PTSD” value (PTSD patients) was “alleviates symptoms of PTSD” and the effect on anxiety [3] was “anxiogenic effects”. The “activity at 5-HTR1A” value [4] was “partial agonist”, the “depletion of brain serotonin” value (brain serotonin) was “do not deplete brain serotonin” and the “affinity for other 5-HT, NE, or DA receptors” value [5] was “weak, if any, affinity”. For the same molecule, the “tolerability in two Phase 1 studies” value (healthy volunteers; healthy volunteers) was “well-tolerated”, the “tolerability in phase 1 clinical study” value (healthy volunteers; human doses approximately 100–150 mg) was “well tolerated, with no severe adverse events reported” and the “tolerability in clinical studies” value (healthy volunteers; human) was “well tolerated”. The “immobility in the FST” value (mice) was “increased immobility”.

Reference: paper PMC9873307, “Methylone, a rapid acting entactogen with robust anxiolytic and antidepressant-like activity” (Frontiers in Psychiatry, 2023)
